Laboratory results as given in ChEMBL document CHEMBL6177994 (J Med Chem, 2025).
pIC50: −log10 of the molar value. The source made the active and inactive calls. The rule behind the calls is not given here.

Key:
[1] = Clearance in male Sprague-Dawley rat at 1 mg/kg, iv measured up to 24 hrs by LC-MS/MS analysis; type: ADME, organism-based; conditions: in vivo
Cytochrome P450 2B6 = Cytochrome P450 2B6 (Homo sapiens, UniProt P20813); assay: Inhibition of CYP2B6 in human liver microsomes using bupropion as substrate at 10 uM incubated for 20 mins in presence of NADPH by LC/MS analysis; type: ADME, Microsome
[2] = test system: Protein cereblon/GTPase KRas (Homo sapiens), P01116+Q96SW2 [G12D]; assay: PROTAC activity at CRBN/KRAS G12D mutant in human ASPC1 cells assessed as induction of KRAS G12D mutant degradation at 50 nM measured after 24 hrs by immunoblot analysis relative to control; type: cell-based
Cytochrome P450 2D6 = Cytochrome P450 2D6 (Homo sapiens, UniProt P10635); assay: Inhibition of CYP2D6 in human liver microsomes using dextromethorphan as substrate at 10 uM incubated for 15 mins in presence of NADPH by LC/MS analysis; type: ADME, Microsome; conditions: 0.25 h
[3] = Antitumor activity against human GP2d cells xenografted in female Balb/c nude mouse model assessed as tumor growth inhibition at 1 mg/kg, iv QW measured after 28 days relative to control; type: functional; conditions: 672 h, time 28 day, read-out: TGI
[4] = Half life in male Sprague-Dawley rat at 1 mg/kg, iv measured up to 24 hrs by LC-MS/MS analysis; type: ADME, organism-based; conditions: in vivo
[5] = Stability in monkey plasma assessed as half life at 1 uM measured up to 120 mins by LC-MS/MS analysis; type: ADME, cell-free, Macaca mulatta; conditions: rhesus monkey
[6] = Clearance in male Beagle dog at 1 mg/kg, iv measured up to 24 hrs by LC-MS/MS analysis; type: ADME, organism-based, Canis lupus familiaris; conditions: in vivo
[7] = Inhibition of ERK phosphorylation in human AGS cells harbouring KRAS G12D mutant measured after 24 hrs; type: cell-based
GP2d = assay: PROTAC activity at CRBN/KRAS G12D mutant in human GP2d cells assessed as induction of KRAS G12D mutant degradation 0.01 to 100 nM measured after 24 hrs by immunoblot analysis; type: cell-based; conditions: dose 0.01-100 nM
NCI-H358 = assay: Antiproliferative activity against human NCI-H358 cells harbouring KRAS G12C mutant assessed as inhibition of cell growth measured after 72 hrs by Cell titer glo method; type: functional, cell-based
[8] = Inhibition of ERK phosphorylation in human ASPC1 cells harbouring KRAS G12D mutant measured after 24 hrs; type: cell-based; conditions: ASPC1, 24 h
[9] = test system: Protein cereblon/GTPase KRas (Homo sapiens), P01116+Q96SW2 [G12D]; assay: In vivo PROTAC activity at CRBN/KRAS G12D mutant in male Balb/c nude mouse xenografted with human GP2d cells assessed as inhibition of DUSP4 level at 10 mg/kg, iv measured after 7 days; type: functional, organism-based; conditions: time 7.0 day
[10] = test system: Protein cereblon/GTPase KRas (Homo sapiens), P01116+Q96SW2 [G12D]; assay: In vivo PROTAC activity at CRBN/KRAS G12D mutant in male Balb/c nude mouse xenografted with human PK-59 cells assessed as increase in cleaved caspase 7 level at 10 mg/kg, iv measured after 24 hrs relative to control; type: functional, organism-based
[11] = Inhibition of ERK phosphorylation in human GP2d cells harbouring KRAS G12D mutant measured after 24 hrs; type: cell-based
GTPase KRas = GTPase KRas (Homo sapiens, UniProt P01116, G12D); assay: Binding affinity to 6 His-tagged GDP-loaded human KRAS G12D mutant assessed as GDP-GTP exchange preincubated for 30 mins followed by GTP addition for 30 mins by HTRF method
[12] = test system: Protein cereblon/GTPase KRas (Homo sapiens), P01116+Q96SW2 [G12D]; assay: In vivo PROTAC activity at CRBN/KRAS G12D mutant in male Balb/c nude mouse xenografted with human GP2d cells assessed as increase in cleaved caspase 7 level at 10 mg/kg, iv measured after 7 days; type: functional, organism-based; conditions: time 7.0 day
[13] = Drug concentration in male Balb/c nude mouse plasma xenografted with human GP2d cells at 10 mg/kg, iv administered as single dose measured after 6 hrs by LC-MS/MS analysis; type: ADME, organism-based
[14] = AUC (0 to t) in male ICR mouse at 1 mg/kg, iv measured up to 24 hrs by LC-MS/MS analysis; type: ADME, organism-based; conditions: in vivo
[15] = test system: Protein cereblon/GTPase KRas (Homo sapiens), P01116+Q96SW2 [G12D]; assay: PROTAC activity at CRBN/KRAS G12D mutant in human ASPC1 cells assessed as induction of KRAS G12D mutant degradation at 5 nM preincubated with MRTX1133 followed by compound addition and measured after 24 hrs by Western blot analysis; type: cell-based
[16] = Drug concentration in male ICR mouse plasma at 10 mg/kg, iv measured after 0.25 hrs by LC-MS/MS analysis; type: ADME, organism-based
NCI-H727 = assay: Antiproliferative activity against human NCI-H727 cells harbouring KRAS G12V mutant assessed as inhibition of cell growth measured after 72 hrs by Cell titer glo method; type: functional, cell-based
[17] = Drug concentration in male Balb/c nude mouse tumor xenografted with human GP2d cells at 10 mg/kg, iv administered as single dose measured after 7 days by LC-MS/MS analysis; type: ADME, organism-based, Neoplasm; conditions: time 7 day, read-out: Ct
[18] = molecular target: Protein cereblon/GTPase KRas (Homo sapiens) (UniProt P01116+Q96SW2); assay: PROTAC activity at CRBN/KRAS in human MKN-1 cells assessed as induction of KRAS degradation 1 nM measured after 24 hrs by immunoblot analysis; type: cell-based
[19] = molecular target: Protein cereblon/GTPase KRas (Homo sapiens, UniProt P01116+Q96SW2, G12D); assay: PROTAC activity at CRBN/KRAS G12D mutant in human ASPC1 cells assessed as induction of KRAS G12D mutant degradation measured after 24 hrs by immunoblot analysis; type: cell-based
SK-LU-1 = assay: Antiproliferative activity against human SK-LU-1 cells harbouring KRAS G12D mutant assessed as inhibition of cell growth measured after 72 hrs by Cell titer glo method; type: functional, cell-based
AGS = assay: PROTAC activity at CRBN/KRAS G12D mutant in human AGS cells assessed as induction of KRAS G12D mutant degradation 0.01 to 100 nM measured after 24 hrs by immunoblot analysis; type: cell-based; conditions: dose 0.01-100 nM
ASPC1 = assay: Effect on CK1alpha level in human ASPC1 cells at 10 nM measured after 8 hrs by Western blot analysis; type: functional, cell-based
[20] = test system: Protein cereblon/GTPase KRas (Homo sapiens), P01116+Q96SW2 [G12D]; assay: In vivo PROTAC activity at CRBN/KRAS G12D mutant in male Balb/c nude mouse xenografted with human PK-59 cells assessed as increase in cleaved caspase 7 level at 10 mg/kg, iv measured up to 168 hrs; type: functional, organism-based
[21] = Elimination half life in male ICR mouse pancreas at 10 mg/kg, iv measured up to 336 hrs by LC-MS/MS analysis; type: ADME, organism-based; conditions: read-out: beta t1/2 (converted)
HPAC = assay: Antiproliferative activity against human HPAC cells harbouring KRAS G12D mutant assessed as inhibition of cell growth measured after 72 hrs by Cell titer glo method; type: functional, cell-based
[22] = Clearance in male cynomolgus monkey at 1 mg/kg, iv measured up to 24 hrs by LC-MS/MS analysis; type: ADME, organism-based, Macaca fascicularis; conditions: in vivo
MKN-1 = assay: Antiproliferative activity against human MKN-1 cells harbouring wild type KRAS assessed as inhibition of cell growth measured after 72 hrs by Cell titer glo method; type: functional, cell-based

Protein cereblon/GTPase KRas (Homo sapiens), P01116+Q96SW2 [G12D], sequence (P01116 whole entry G12D): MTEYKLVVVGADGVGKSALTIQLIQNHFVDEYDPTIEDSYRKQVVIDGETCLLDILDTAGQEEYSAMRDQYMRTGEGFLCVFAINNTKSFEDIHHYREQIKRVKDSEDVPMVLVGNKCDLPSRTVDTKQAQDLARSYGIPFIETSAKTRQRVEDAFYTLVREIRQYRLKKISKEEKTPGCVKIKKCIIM
Protein cereblon/GTPase KRas (Homo sapiens), P01116+Q96SW2 [G12D], sequence (Q96SW2 whole entry partner): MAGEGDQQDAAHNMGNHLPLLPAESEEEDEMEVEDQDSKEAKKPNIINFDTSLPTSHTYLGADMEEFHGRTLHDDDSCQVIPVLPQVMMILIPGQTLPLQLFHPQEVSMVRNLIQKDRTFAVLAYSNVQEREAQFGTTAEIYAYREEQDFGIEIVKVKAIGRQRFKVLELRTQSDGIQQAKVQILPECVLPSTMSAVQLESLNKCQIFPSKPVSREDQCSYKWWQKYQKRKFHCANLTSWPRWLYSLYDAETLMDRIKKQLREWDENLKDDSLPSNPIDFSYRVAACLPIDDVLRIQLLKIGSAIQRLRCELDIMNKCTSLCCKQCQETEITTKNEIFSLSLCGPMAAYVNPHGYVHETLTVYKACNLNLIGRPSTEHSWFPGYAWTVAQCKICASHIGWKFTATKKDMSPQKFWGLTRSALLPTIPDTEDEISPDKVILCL
GTPase KRas, sequence (P01116 whole entry G12D): as the sequence (P01116 whole entry G12D) above
Protein cereblon/GTPase KRas, sequence (P01116 whole entry G12D, stated change not applied): as the sequence (P01116 whole entry G12D) above
Protein cereblon/GTPase KRas, sequence (Q96SW2 whole entry, stated change not applied): as the sequence (Q96SW2 whole entry partner) above
Cytochrome P450 2B6, sequence (P20813 whole entry): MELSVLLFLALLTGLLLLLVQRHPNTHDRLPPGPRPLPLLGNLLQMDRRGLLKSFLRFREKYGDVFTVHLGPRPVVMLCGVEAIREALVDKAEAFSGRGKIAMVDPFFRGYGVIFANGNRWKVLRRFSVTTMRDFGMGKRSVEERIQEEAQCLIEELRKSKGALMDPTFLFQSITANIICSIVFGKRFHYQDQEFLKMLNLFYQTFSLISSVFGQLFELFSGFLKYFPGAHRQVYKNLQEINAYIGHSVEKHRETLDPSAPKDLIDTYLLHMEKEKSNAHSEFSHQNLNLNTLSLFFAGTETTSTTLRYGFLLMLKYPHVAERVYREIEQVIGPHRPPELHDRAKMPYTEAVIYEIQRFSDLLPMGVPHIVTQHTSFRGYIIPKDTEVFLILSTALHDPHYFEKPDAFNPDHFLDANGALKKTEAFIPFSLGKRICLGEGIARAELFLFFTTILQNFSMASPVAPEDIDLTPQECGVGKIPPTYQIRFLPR
Cytochrome P450 2D6, sequence (P10635 whole entry): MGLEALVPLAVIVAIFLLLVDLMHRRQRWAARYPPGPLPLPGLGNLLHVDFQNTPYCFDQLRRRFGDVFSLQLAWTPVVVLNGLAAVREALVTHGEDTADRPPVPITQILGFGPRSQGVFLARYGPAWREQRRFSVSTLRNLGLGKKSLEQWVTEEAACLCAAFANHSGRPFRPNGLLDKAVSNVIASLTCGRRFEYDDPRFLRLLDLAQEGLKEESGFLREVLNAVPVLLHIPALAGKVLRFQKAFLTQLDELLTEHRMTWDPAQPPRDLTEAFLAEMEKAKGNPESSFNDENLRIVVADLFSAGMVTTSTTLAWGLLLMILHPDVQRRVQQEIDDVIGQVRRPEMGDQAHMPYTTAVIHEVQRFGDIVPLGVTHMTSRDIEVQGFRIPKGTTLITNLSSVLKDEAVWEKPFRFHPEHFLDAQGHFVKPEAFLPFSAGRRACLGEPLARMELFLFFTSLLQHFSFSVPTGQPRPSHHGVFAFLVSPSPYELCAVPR
Protein cereblon/GTPase KRas (Homo sapiens), sequence (P01116 whole entry, looked up): as the sequence (P01116 whole entry G12D) above, with D12G counted along it
Protein cereblon/GTPase KRas (Homo sapiens), sequence (Q96SW2 whole entry, looked up): as the sequence (Q96SW2 whole entry partner) above

In the case of C#Cc1c(F)ccc2cc(O)cc(-c3ncc4c(N5CC6CCC(C5)N6)nc(OCC5(CN6CCC7(CC6)CC(N6CCC(c8cc9c(cc8F)c(N8CCC(=O)NC8=O)nn9C)CC6)C7)CC5)nc4c3F)c12, the clearance [1] was 33 mL/min/kg, the “inhibition (INH)” value (Cytochrome P450 2B6) was “Not_active” and the Activity [2] was 74%. For the same compound, the “inhibition (INH)” value (Cytochrome P450 2D6) was “Not_active”, the inhibition in vivo at 1 mg/kg [3] was 74.8% and the half-life [4] was 9.63 h. It also gave a half-life at 1 µM [5] of 12.8 h, a clearance [6] of 33 mL/min/kg and a pIC50 [7] of 7.97. The Activity (GP2d) was “Active”, the Activity (NCI-H358) was “Weak_effect; Compound Showed Weaker Potency In Antiproliferative Activity Compared To Mrtx1133” and the pIC50 [8] was 8.60. For the same compound, the Activity [9] was “Active”, the Activity [10] was over 100% and the pIC50 [11] was 9.46. For the same compound, the pIC50 (GTPase KRas) was 8.20, the Activity [12] was “Active” and the concentration at 6 h [13] was 113 ng/mL. The AUC(0-t) at 24 h [14] was 0.397 µM·h, the Activity [15] was “Active” and the concentration at 0.25 h [16] was 903 ng/mL. For the same compound, the Activity (NCI-H727) was “Weak_effect; Compound Showed Weaker Potency In Antiproliferative Activity Compared To Mrtx1133”, the concentration at 168 h [17] was 840 ng/g and the Activity [18] was “inactive”. The DC50 [19] was 0.6 nM, the Activity (SK-LU-1) was “Active; Compound Showed Stronger Antiproliferative Activity Compared To Mrtx1133” and the Activity (AGS) was “Active”. For the same compound, the Activity (ASPC1) was “inactive”, the Activity [20] was “Active” and the half-life [21] was 330 h. For the same compound, the Activity (HPAC) was “Active; Compound Showed Stronger Antiproliferative Activity Compared To Mrtx1133”, the clearance [22] was 19.5 mL/min/kg and the Activity (MKN-1) was “Weak_effect; Compound Showed Weaker Potency In Antiproliferative Activity Compared To Mrtx1133”.
